The supplement of paper PMC10307832

How the values were obtained:
Experiment in all cases: relative viability (nuclei count vs DMSO), 5 days (fraction); higher = more cells survive
HCC-366 = tested on: HCC-366
Summary of the method: (§1)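 For relative viability, nuclei counts in treated wells were divided by those in vehicle wells. Lung cancer cell lines had been pin-tool dosed in 1536-well plates the day after seeding and cultured for 5 days, then fixed and stained in one step (final 0.05% Triton X-100, 1% formaldehyde, 1 ug/ml Hoechst) and imaged at 4×. Doses were one drug alone or a fixed anchor-drug dose plus five library-drug doses (not always all listed) in √10 steps, and values are duplicate-plate medians.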

NCI-H2342 = tested on: NCI-H2342
Summary of the method: as §1

NCI-H1734 = tested on: NCI-H1734
Summary of the method: as §1

CAL-12T = tested on: CAL-12T
Summary of the method: as §1

NCI-H1563 = tested on: NCI-H1563
Summary of the method: as §1

NCI-H1650 = tested on: NCI-H1650
Summary of the method: as §1

NCI-H1651 = tested on: NCI-H1651
Summary of the method: as §1

NCI-H460 = tested on: NCI-H460
Summary of the method: as §1

NCI-H1395 = tested on: NCI-H1395
Summary of the method: as §1

NCI-H838 = tested on: NCI-H838
Summary of the method: as §1

LU99A = tested on: LU99A
Summary of the method: as §1

LOU-NH91 = tested on: LOU-NH91
Summary of the method: as §1

NCI-H1355 = tested on: NCI-H1355
Summary of the method: as §1

NCI-H2023 = tested on: NCI-H2023
Summary of the method: as §1

BEN = tested on: BEN
Summary of the method: as §1

HCC-44 = tested on: HCC-44
Summary of the method: as §1

NCI-H1437 = tested on: NCI-H1437
Summary of the method: as §1

NCI-H1975 = tested on: NCI-H1975
Summary of the method: as §1

NCI-H1755 = tested on: NCI-H1755
Summary of the method: as §1

NCI-H441 = tested on: NCI-H441
Summary of the method: as §1

NCI-H358 = tested on: NCI-H358
Summary of the method: as §1

EKVX = tested on: EKVX
Summary of the method: as §1

NCI-H2085 = tested on: NCI-H2085
Summary of the method: as §1

C=C1C(=O)O[C@@H](CCCCCCCC)[C@@H]1C(=O)O [C-75] + COc1cccc2cc(-c3nc([C@H]4CC[C@H](C(=O)O)CC4)n4ncnc(N)c34)[nH]c12 [OSI-027] (partner 0.5 µM)
relative viability (HCC-366; first compound 0.08 µM): 1.06 | relative viability (HCC-366; first compound 0.253 µM): 1.31 | relative viability (HCC-366; first compound 0.8 µM): 0.897 | relative viability (HCC-366; first compound 8 µM): 0.834 | relative viability (NCI-H2342; first compound 0.08 µM): 0.582 | relative viability (NCI-H2342; first compound 0.253 µM): 0.656 | relative viability (NCI-H2342; first compound 0.8 µM): 0.582 | relative viability (NCI-H2342; first compound 2.53 µM): 0.628 | relative viability (NCI-H2342; first compound 8 µM): 0.591 | relative viability (NCI-H1734; first compound 0.08 µM): 0.593 | relative viability (NCI-H1734; first compound 0.253 µM): 0.621 | relative viability (NCI-H1734; first compound 0.8 µM): 0.481 | relative viability (NCI-H1734; first compound 2.53 µM): 0.323 | relative viability (NCI-H1734; first compound 8 µM): 0.455 | relative viability (CAL-12T; first compound 0.08 µM): 0.862 | relative viability (CAL-12T; first compound 0.253 µM): 1.06 | relative viability (CAL-12T; first compound 0.8 µM): 0.697 | relative viability (CAL-12T; first compound 2.53 µM): 0.592 | relative viability (CAL-12T; first compound 8 µM): 0.63 | relative viability (NCI-H1563; first compound 0.08 µM): 0.806 | relative viability (NCI-H1563; first compound 0.253 µM): 0.856 | relative viability (NCI-H1563; first compound 0.8 µM): 0.791 | relative viability (NCI-H1563; first compound 2.53 µM): 0.718 | relative viability (NCI-H1563; first compound 8 µM): 0.79 | relative viability (NCI-H1650; first compound 0.08 µM): 0.743 | relative viability (NCI-H1650; first compound 0.253 µM): 0.856 | relative viability (NCI-H1650; first compound 2.53 µM): 0.442 | relative viability (NCI-H1650; first compound 8 µM): 0.851 | relative viability (NCI-H1651; first compound 0.08 µM): 0.712 | relative viability (NCI-H1651; first compound 0.253 µM): 0.838 | relative viability (NCI-H1651; first compound 0.8 µM): 0.768 | relative viability (NCI-H1651; first compound 2.53 µM): 0.635 | relative viability (NCI-H1651; first compound 8 µM): 0.815 | relative viability (NCI-H460; first compound 0.08 µM): 0.664 | relative viability (NCI-H460; first compound 0.253 µM): 0.751 | relative viability (NCI-H460; first compound 0.8 µM): 0.59 | relative viability (NCI-H460; first compound 8 µM): 0.527 | relative viability (NCI-H1395; first compound 0.08 µM): 0.669 | relative viability (NCI-H1395; first compound 0.253 µM): 0.624 | relative viability (NCI-H1395; first compound 0.8 µM): 0.556 | relative viability (NCI-H1395; first compound 2.53 µM): 0.667 | relative viability (NCI-H1395; first compound 8 µM): 0.649 | relative viability (NCI-H838; first compound 0.08 µM): 0.442 | relative viability (NCI-H838; first compound 0.8 µM): 0.37 | relative viability (NCI-H838; first compound 2.53 µM): 0.36 | relative viability (NCI-H838; first compound 8 µM): 0.404 | relative viability (LU99A; first compound 0.08 µM): 0.328 | relative viability (LU99A; first compound 0.253 µM): 0.28 | relative viability (LU99A; first compound 0.8 µM): 0.273 | relative viability (LU99A; first compound 2.53 µM): 0.252 | relative viability (LU99A; first compound 8 µM): 0.325 | relative viability (LOU-NH91; first compound 0.08 µM): 0.725 | relative viability (LOU-NH91; first compound 0.253 µM): 0.622 | relative viability (LOU-NH91; first compound 0.8 µM): 0.68 | relative viability (LOU-NH91; first compound 2.53 µM): 0.656 | relative viability (LOU-NH91; first compound 8 µM): 0.781 | relative viability (NCI-H1355; first compound 0.08 µM): 0.49 | relative viability (NCI-H1355; first compound 0.253 µM): 0.441 | relative viability (NCI-H1355; first compound 0.8 µM): 0.391 | relative viability (NCI-H1355; first compound 2.53 µM): 0.348 | relative viability (NCI-H1355; first compound 8 µM): 0.5 | relative viability (NCI-H2023; first compound 0.08 µM): 0.455 | relative viability (NCI-H2023; first compound 0.253 µM): 0.558 | relative viability (NCI-H2023; first compound 0.8 µM): 0.34 | relative viability (NCI-H2023; first compound 2.53 µM): 0.415 | relative viability (NCI-H2023; first compound 8 µM): 0.32 | relative viability (BEN; first compound 0.08 µM): 0.347 | relative viability (BEN; first compound 0.253 µM): 0.293 | relative viability (BEN; first compound 0.8 µM): 0.32 | relative viability (BEN; first compound 8 µM): 0.288 | relative viability (HCC-44; first compound 0.08 µM): 0.675 | relative viability (HCC-44; first compound 0.253 µM): 0.428 | relative viability (HCC-44; first compound 0.8 µM): 0.463 | relative viability (HCC-44; first compound 2.53 µM): 0.353 | relative viability (HCC-44; first compound 8 µM): 0.404 | relative viability (NCI-H1437; first compound 0.08 µM): 0.842 | relative viability (NCI-H1437; first compound 0.253 µM): 0.871 | relative viability (NCI-H1437; first compound 0.8 µM): 0.867 | relative viability (NCI-H1437; first compound 2.53 µM): 0.57 | relative viability (NCI-H1437; first compound 8 µM): 0.914 | relative viability (NCI-H1975; first compound 0.08 µM): 0.842 | relative viability (NCI-H1975; first compound 0.253 µM): 0.672 | relative viability (NCI-H1975; first compound 0.8 µM): 0.679 | relative viability (NCI-H1975; first compound 2.53 µM): 0.436 | relative viability (NCI-H1975; first compound 8 µM): 0.717 | relative viability (NCI-H1755; first compound 0.08 µM): 0.767 | relative viability (NCI-H1755; first compound 0.253 µM): 0.724 | relative viability (NCI-H1755; first compound 0.8 µM): 0.711 | relative viability (NCI-H1755; first compound 2.53 µM): 0.604 | relative viability (NCI-H1755; first compound 8 µM): 0.72 | relative viability (NCI-H441; first compound 0.08 µM): 0.512 | relative viability (NCI-H441; first compound 0.253 µM): 0.713 | relative viability (NCI-H441; first compound 0.8 µM): 0.678 | relative viability (NCI-H441; first compound 2.53 µM): 0.36 | relative viability (NCI-H441; first compound 8 µM): 0.548 | relative viability (NCI-H358; first compound 0.08 µM): 0.714 | relative viability (NCI-H358; first compound 0.253 µM): 0.871 | relative viability (NCI-H358; first compound 0.8 µM): 0.691 | relative viability (NCI-H358; first compound 2.53 µM): 0.383 | relative viability (NCI-H358; first compound 8 µM): 0.624 | relative viability (EKVX; first compound 0.08 µM): 0.699 | relative viability (EKVX; first compound 0.253 µM): 0.979 | relative viability (EKVX; first compound 0.8 µM): 0.651 | relative viability (EKVX; first compound 8 µM): 0.68 | relative viability (NCI-H2085; first compound 0.08 µM): 0.882 | relative viability (NCI-H2085; first compound 0.253 µM): 0.883 | relative viability (NCI-H2085; first compound 0.8 µM): 0.689 | relative viability (NCI-H2085; first compound 2.53 µM): 0.757 | relative viability (NCI-H2085; first compound 8 µM): 0.73
